From ChEMBL document CHEMBL1201862, “PubChem BioAssay data set” (2004)
The source made the active and inactive calls.

Assays:
[1] = system: Streptococcus sp. 'group A'; test: Streptococcus pyogenes SK(-)GAS viability under kanamycin – luminescence, BacTiterGlo, confirmation, counter-screen for streptokinase expression inhibitor project, dose response (AID 1900); format: functional, organism-based
Streptokinase A = target: T1, Streptokinase A (Streptococcus pyogenes serotype M1, UniProt P10520); test: viability-normalized secreted streptokinase activity reduction – plasminogen activation absorbance, OD405, dose response (AID 1914); format: functional, Streptococcus pyogenes M1 GAS;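 note: secreted streptokinase activity via plasminogen activation per viability signal from cell pellet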
T1 sequence (P10520 whole entry): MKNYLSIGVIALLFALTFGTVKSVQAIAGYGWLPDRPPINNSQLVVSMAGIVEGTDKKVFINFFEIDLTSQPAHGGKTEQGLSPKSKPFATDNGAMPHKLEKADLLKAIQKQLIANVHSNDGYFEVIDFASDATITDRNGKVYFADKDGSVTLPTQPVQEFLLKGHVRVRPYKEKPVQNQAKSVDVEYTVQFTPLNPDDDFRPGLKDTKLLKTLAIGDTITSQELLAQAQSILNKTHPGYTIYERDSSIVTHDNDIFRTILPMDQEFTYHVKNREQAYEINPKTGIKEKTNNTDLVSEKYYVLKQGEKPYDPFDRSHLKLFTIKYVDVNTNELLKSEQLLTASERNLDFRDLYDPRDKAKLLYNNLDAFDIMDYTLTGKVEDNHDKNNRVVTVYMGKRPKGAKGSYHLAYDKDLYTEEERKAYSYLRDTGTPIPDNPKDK

[2] = viability of PTEN-deleted HCT116 cells – cell-based, HCT116 PTEN knockout, dose response (AID 1047); format: functional;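 note: HCT116 colon tumor cells with PTEN knocked out; cells exposed to compound for 60 hours before readout; potency for loss of cell viability measured by luminescence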
[3] = viability of HCT116 lacking mutant beta-catenin – cell-based, human colon tumor, dose response (AID 1045); format: functional;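 note: HCT116 colon tumor cells with beta catenin knocked out; cells exposed to compound for 60 hours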
Streptococcus = test: GAS UMAA2166 growth inhibition – luminescence, BacTiterGlo, counter-screen for streptokinase expression inhibitor project, dose response (AID 1915); format: functional, organism-based;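 note: potency for reduction of bacterial viability or growth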
[4] = target: T2, Short transient receptor potential channel 4 (Mus musculus, UniProt Q9QUQ5); test: potentiation of DAMGO-evoked TRPC4 calcium signal – cell-based, HEK293 TRPC4/mu-opioid, Fluo-4 calcium, EC20 DAMGO, dose response (AID 434941); format: functional
T2 sequence (Q9QUQ5 whole entry): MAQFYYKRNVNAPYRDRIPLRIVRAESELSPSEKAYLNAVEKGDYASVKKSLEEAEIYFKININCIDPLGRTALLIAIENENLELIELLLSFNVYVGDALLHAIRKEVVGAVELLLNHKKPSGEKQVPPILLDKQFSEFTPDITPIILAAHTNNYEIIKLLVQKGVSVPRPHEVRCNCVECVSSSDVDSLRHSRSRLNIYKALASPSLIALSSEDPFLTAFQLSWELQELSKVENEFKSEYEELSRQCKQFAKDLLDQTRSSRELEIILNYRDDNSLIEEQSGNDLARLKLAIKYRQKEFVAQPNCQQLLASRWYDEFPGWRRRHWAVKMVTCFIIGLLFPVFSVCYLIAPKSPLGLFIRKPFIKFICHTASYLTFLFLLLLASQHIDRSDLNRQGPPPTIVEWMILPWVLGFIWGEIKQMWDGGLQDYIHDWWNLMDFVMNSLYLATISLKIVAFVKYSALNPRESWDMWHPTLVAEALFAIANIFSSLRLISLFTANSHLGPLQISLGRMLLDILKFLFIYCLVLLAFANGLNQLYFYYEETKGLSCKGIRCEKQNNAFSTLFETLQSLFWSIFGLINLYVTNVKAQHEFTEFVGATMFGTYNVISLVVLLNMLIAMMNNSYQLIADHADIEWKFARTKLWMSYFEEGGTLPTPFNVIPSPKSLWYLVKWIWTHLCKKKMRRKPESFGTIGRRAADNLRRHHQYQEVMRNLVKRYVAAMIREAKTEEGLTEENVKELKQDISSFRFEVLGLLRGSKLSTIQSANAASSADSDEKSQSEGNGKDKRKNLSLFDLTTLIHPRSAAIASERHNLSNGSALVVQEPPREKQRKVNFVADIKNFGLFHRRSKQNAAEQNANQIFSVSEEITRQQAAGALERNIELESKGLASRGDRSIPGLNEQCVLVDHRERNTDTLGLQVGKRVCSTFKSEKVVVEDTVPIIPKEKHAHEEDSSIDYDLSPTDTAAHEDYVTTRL

[5] = target: T3, Corticotropin-releasing factor receptor 2/Corticotropin-releasing factor-binding protein (Homo sapiens, UniProt P24387+Q13324); test: activators of CRF receptor 2 with binding protein – uHTS hits, confirmation (AID 602473); format: functional; details: read-out: EC50_Mean
T3 sequence (Q13324 whole entry): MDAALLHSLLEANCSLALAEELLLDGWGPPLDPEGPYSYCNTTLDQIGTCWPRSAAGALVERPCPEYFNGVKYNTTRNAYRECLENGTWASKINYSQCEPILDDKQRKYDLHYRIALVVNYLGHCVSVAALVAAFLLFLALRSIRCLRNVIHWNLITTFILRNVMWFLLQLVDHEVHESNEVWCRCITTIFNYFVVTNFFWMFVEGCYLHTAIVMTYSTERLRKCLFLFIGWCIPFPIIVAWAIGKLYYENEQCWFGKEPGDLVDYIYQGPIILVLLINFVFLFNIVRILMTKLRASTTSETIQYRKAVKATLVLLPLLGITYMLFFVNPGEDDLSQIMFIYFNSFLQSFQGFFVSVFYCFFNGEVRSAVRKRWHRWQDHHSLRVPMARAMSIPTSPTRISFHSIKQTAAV
T3 sequence (P24387 whole entry): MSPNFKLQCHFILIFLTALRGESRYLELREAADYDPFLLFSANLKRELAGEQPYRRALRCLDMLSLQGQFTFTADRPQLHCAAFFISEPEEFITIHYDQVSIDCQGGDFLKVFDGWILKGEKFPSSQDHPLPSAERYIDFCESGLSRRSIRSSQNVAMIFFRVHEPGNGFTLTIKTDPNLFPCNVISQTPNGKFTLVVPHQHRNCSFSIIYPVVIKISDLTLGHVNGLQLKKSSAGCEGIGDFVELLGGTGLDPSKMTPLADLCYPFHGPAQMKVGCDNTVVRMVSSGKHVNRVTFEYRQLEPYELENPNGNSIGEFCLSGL

Troponin, cardiac muscle = Troponin, cardiac muscle (Homo sapiens, UniProt P19429+P45379+P63316); test: Fluorescence-based biochemical high throughput dose response assay for activators of the calcium sensitivity of cardiac Regulated Thin Filaments (RTF). [Related pubchem assays (depositor defined):AID493008, AID493018, AID504382, AID504383]; format: protein-complex assay
Cannabinoid receptor 2 [6] = target: T4, Cannabinoid receptor 2 (Homo sapiens, UniProt P34972); test: SAR analysis of antagonists of the Cannabinoid Receptor 2 using an Image-Based Assay - Set 2. [Related pubchem assays (depositor defined):AID1961, AID1965]; format: functional
[7] = target: G-protein coupled receptor 55 (Homo sapiens, UniProt Q9Y2T6); test: SAR analysis of selective Agonists of GPR55 using an Image-Based Assay - Set 2. [Related pubchem assays (depositor defined):AID1961, AID1965]; format: functional
Cannabinoid receptor 2 [8] = target: T4, Cannabinoid receptor 2; test: SAR analysis of agonists of the Cannabinoid Receptor 2 using an Image-Based Assay - Set 2. [Related pubchem assays (depositor defined):AID1961, AID1965]; format: functional
[9] = target: T5, G-protein coupled receptor 35 (Homo sapiens, UniProt Q9HC97); test: SAR analysis of Agonists of the GPR35 Receptor using an Image-Based Assay - Set 3. [Related pubchem assays (depositor defined):AID1961, AID1965]; format: functional
Cannabinoid receptor 1 [10] = target: T6, Cannabinoid receptor 1 (Homo sapiens, UniProt P21554); test: SAR analysis of antagonists of the Cannabinoid Receptor 1 using an Image-Based Assay - Set 3. [Related pubchem assays (depositor defined):AID1961, AID1965]; format: functional
Cannabinoid receptor 1 [11] = target: T6, Cannabinoid receptor 1; test: SAR analysis of agonists of the Cannabinoid Receptor 1 using an Image-Based Assay - Set 3. [Related pubchem assays (depositor defined):AID1961, AID1965]; format: functional
[12] = target: T5, G-protein coupled receptor 35; test: SAR analysis of Antagonists of the GPR35 Receptor using an Image-Based Assay - Set 4. [Related pubchem assays (depositor defined):[…]]; format: functional
Phosphomannomutase 2 = Phosphomannomutase 2 (Homo sapiens, UniProt O15305); test: Counter screen SAR assay for PMM2 inhibitors via a fluorescence intensity assay. [Related pubchem assays (depositor defined):AID1545, AID1574]
Chain of Phosphomannomutase 2 (O15305 whole entry): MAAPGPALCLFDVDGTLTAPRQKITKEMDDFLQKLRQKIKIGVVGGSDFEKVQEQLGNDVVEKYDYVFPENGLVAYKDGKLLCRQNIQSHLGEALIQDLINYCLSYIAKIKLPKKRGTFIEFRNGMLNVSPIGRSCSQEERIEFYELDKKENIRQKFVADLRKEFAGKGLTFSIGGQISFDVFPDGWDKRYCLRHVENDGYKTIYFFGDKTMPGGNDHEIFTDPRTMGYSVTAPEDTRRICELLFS

T4 sequence (P34972 whole entry): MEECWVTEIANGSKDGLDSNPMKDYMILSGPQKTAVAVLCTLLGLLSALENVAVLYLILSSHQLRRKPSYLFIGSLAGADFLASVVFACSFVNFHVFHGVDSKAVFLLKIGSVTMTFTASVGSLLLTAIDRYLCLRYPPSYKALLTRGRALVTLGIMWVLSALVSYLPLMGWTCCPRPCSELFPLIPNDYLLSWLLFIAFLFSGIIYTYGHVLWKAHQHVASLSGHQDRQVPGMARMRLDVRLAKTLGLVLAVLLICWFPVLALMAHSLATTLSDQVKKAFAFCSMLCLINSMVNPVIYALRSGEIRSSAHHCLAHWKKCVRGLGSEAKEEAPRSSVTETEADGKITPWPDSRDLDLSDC
T6 sequence (P21554 whole entry): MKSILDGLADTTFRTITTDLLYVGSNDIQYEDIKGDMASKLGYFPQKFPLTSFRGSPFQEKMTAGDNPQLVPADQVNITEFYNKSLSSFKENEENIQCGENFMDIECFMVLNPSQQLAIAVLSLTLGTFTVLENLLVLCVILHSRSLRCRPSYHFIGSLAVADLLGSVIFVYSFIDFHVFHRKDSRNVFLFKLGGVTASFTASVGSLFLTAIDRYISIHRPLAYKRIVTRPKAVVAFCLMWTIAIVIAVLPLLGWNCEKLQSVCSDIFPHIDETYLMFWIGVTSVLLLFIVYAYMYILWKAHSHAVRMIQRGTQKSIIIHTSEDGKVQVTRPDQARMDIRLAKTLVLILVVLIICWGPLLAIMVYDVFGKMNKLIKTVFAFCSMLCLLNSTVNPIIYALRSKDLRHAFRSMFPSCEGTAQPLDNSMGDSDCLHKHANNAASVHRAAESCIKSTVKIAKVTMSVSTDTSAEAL
T5 sequence (Q9HC97 whole entry): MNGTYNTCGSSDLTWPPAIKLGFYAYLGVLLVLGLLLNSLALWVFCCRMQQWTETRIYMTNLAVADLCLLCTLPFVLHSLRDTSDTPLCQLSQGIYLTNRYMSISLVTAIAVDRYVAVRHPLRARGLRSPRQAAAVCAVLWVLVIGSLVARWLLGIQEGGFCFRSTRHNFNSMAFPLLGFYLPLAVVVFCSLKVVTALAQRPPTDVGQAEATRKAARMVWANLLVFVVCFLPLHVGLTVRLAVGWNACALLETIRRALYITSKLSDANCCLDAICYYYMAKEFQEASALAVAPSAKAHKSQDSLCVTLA
Chain of G-protein coupled receptor 55 (Q9Y2T6 whole entry): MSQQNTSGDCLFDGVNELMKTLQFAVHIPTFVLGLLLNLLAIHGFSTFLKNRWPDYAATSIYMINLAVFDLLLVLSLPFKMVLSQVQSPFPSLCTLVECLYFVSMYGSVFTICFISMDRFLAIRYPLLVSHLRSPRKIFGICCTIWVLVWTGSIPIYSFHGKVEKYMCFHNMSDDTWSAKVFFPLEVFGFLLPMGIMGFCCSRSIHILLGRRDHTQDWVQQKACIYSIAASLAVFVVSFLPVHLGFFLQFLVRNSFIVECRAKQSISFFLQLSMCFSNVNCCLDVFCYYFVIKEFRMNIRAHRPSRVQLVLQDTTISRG

SMILES: Cc1ccc(Cl)cc1N1CCN(C(=O)c2cccc3c(=O)c(C)c(-c4ccccc4)oc23)CC1
- EC50 [1]: 5.59 µM (active)
- EC50 (Streptokinase A): 16 µM (active)
- EC50 [2]: 8.26 µM (active)
- EC50 [3]: 9.86 µM (active)
- EC50 (Streptococcus): > 150 µM (not active)
- EC50 [4]: 6.68 µM (active)
- EC50 [5]: > 53 µM (inactive)

SMILES: O=C(/C=C/c1nc2ccccc2s1)N1CCCCCC1
- EC50 (Troponin, cardiac muscle): > 71.5 µM (inactive)

SMILES: CCOc1ccccc1N1CCN(C(=O)c2cc(S(=O)(=O)N(C)C)ccc2N2CCCC2)CC1
- IC50 (Cannabinoid receptor 2 [6]): > 32 µM (inactive)
- EC50 [7]: > 32 µM (inactive)
- EC50 (Cannabinoid receptor 2 [8]): > 32 µM (inactive)
- EC50 [9]: > 32 µM (inactive)
- IC50 (Cannabinoid receptor 1 [10]): > 32 µM (inactive)
- EC50 (Cannabinoid receptor 1 [11]): > 32 µM (inactive)
- IC50 [12]: > 32 µM (inactive)

SMILES: CN(C)c1cccc(/N=c2\ssnc2Cl)c1
- IC50 (Phosphomannomutase 2): > 100 µM (inactive)
